According to US20170291890A1 (Epizyme, Inc., priority 2014, published 2017):

Assays:
KDM4C = molecular target: T1, KDM4C (Homo sapiens, UniProt Q9H3R0); assay: KDM4C Assay (SAMDI mass spectrometry demethylase assay); type: biochemical; settings: N-terminal GST-tagged KDM4C 2-372; class symbols; read-out: 4C IC50
T1 construct: N-terminal GST-tagged KDM4C^2-372 was purchased from BPS Biosciences; GST (N); purchased BPS Biosciences
T1 sequence (Q9H3R0 2-372): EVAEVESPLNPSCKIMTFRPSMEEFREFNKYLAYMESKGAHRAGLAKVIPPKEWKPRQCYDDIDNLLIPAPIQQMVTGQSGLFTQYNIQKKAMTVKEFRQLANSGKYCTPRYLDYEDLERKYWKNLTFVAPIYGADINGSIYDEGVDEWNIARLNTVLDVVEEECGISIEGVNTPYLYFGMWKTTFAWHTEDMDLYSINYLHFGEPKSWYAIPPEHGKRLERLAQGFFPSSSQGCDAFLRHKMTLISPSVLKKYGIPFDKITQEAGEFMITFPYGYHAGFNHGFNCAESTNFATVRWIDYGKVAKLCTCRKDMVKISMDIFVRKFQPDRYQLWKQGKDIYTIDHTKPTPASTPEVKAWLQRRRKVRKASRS
Description: (§1) N-terminal GST-tagged KDM4C^2-372 was purchased from BPS Biosciences. Peptides were synthesized by BioPeptide and all other reagents were purchased from Sigma-Aldrich at the highest level of purity possible. Assays were performed in a 50 μL volume in 384-well V-bottom polypropylene microplates (Greiner) at 25° C. Optimized 1× assay buffer was 50 mM HEPES (pH=8.0), 100 μM sodium ascorbate, 20 mM NaCl, 10 μM ammonium iron sulfate, 1 mM tris(2-carboxyethyl)phosphine (TCEP), 0.002% Tween-20, and 0.005% BSG. For compound screening, 35 μL of KDM4C^2-372 (final concentration, f.c.=5 nM) was added using a Multidrop Combi and preincubated with 1 μL of test compound (f.c.=10 μM) for 30 minutes and subsequently 15 μL of peptide with the following sequence NH2-ARTKQTAR(Kme3)STGGKAPRKQLA(K-Ahx-Biotin)-amide (f.c.=500 nM) and 2-oxoglutarate (f.c.=15 μM) was added by Multidrop Combi to begin the reaction. Reactions proceeded for 150 minutes and were stopped by the addition of 5 μL of formic acid (f.c.=0.5%) using a Multidrop Combi and then analyzed by SAMDI Tech Inc.
(§2) SAMDI Tech analyzed all reactions using self-assembled monoloayer desorption/ionization technology as previously described (Gerard-Levin Z A, Scholle M D, Eisenberg A H, et al.: High-throughput screening of small molecule libraries using SAMDI mass spectrometry. ACS Comb Sci 2011; 13:347-350). Briefly, a 2 μL sample of the stopped demethylase reactions were transferred to a SAMDI array coated with 384 biotin-neutravidin spots using a 384-channel pipet station. The SAMDI arrays were incubated for 1 h in a humidified chamber, followed by washing of the surface with deionized ultra-filtered water (DIUF) and drying under nitrogen. A matrix of 30 mg/ml 2′,4′,6′-Trihydroxyacetophenone monohydrate (THAP) in acetone was applied using a TPP Mosquito 1.2 μL tip by dispensing 50 nL on each of the 384 spots on the array. SAMDI-MS was run using acquisition method ReflectorPositiveUTX. The % conversion of substrate to product was calculated using the AUC of the substrate and product peptide peaks.
(§3) An IC50 value was determined by contacting various concentrations of a test compound with one of the KDM4A, KDM4C or KDMSC enzyme constructs and plotting a dose-response curve which associates the amount of inhibition of the enzyme relative to the concentration of the test compound. From the curve, the IC50 value (which represents the concentration of the test compound necessary to inhibit maximal enzymatic activity by 50%) was determined. Additionally, the slope of the linear range of the plotted curve, which indicates the speed with which the curve rises between the minimum and maximum, was calculated.

KDM4A = molecular target: T2, KDM4A (Homo sapiens, UniProt O75164); assay: KDM4A Assay (SAMDI mass spectrometry demethylase assay); type: biochemical; settings: N-terminal His-tagged KDM4A 1-350; class symbols; read-out: 4A IC50
T2 construct: N-terminal His-tagged KDM4A^1-350 was purchased from BPS Biosciences; His (N); purchased BPS Biosciences
T2 sequence (O75164 1-350): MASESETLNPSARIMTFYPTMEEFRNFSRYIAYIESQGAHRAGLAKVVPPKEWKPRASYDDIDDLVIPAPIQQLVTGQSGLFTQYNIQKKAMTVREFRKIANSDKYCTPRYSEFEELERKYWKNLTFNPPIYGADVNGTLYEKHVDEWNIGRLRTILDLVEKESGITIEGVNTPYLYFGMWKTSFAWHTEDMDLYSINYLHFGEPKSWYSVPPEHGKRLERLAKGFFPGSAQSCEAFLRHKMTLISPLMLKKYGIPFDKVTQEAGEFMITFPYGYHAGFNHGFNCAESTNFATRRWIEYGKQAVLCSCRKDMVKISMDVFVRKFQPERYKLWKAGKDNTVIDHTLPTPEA
Description: as §1, with “His-tagged KDM4A^1-350” for “GST-tagged KDM4C^2-372”, “KDM4A^1-350” for “KDM4C^2-372”, “NH2-ARTKQTAR(Kme2)STGGKAPRKQLA(K-Ahx-Biotin)-amide (f.c.=600” for “NH2-ARTKQTAR(Kme3)STGGKAPRKQLA(K-Ahx-Biotin)-amide (f.c.=500”, “(f.c.=5” for “(f.c.=15”, “120” for “150”
as §2, §3

IC50 (KDM4C) | IC50 (KDM4A) | Structure (SMILES)
100 to 1000 nM | 1 to 100 nM | Cc1c(Nc2cnccc2C(=O)O)cnn1C1CCN(C2CCC2)CC1 [Compound 96]
100 to 1000 nM | 100 to 1000 nM | Cc1c(Nc2cnccc2C(=O)O)cnn1C1CCN(CC(F)(F)F)CC1 [Compound 100, 3-(5-methyl-1-(1-(2,2,2-tri-fluoro-ethyl)piperidin-4-yl)-1H-pyrazol-4-ylamino)isonicotinic acid]
100 to 1000 nM | 100 to 1000 nM | Cc1cn(-c2ccccc2)c(Nc2cnccc2C(=O)O)n1 [Compound 2]
1000 to 10000 nM | 1000 to 10000 nM | O=C(O)c1ccncc1Nc1cn(CCN2CCC(F)(F)CC2)nc1-c1ccccc1 [Compound 17, 3-((1-(2-(4,4-Difluoropiperidin-1-yl)ethyl)-3-phenyl-1H-pyrazol-4-yl)amino)isonicotinic acid]
100 to 1000 nM | 1000 to 10000 nM | O=C(O)c1ccncc1Nc1cc(-c2ccccc2)nn1[C@H]1CC[C@H](O)CC1 [Compound 39, 3-((1-((trans)-4-hydroxycyclohexyl)-3-phenyl-1H-pyrazol-5-yl)amino)isonicotinic acid]
10000 to 100000 nM | 1000 to 10000 nM | Cc1n[nH]c(C)c1Nc1cnccc1C(=O)O [Compound 16, 3-((3,5-Dimethyl-1H-pyrazol-4-yl)amino)isonicotinic acid]
1000 to 10000 nM | 100 to 1000 nM | Cc1nn(C2CCNCC2)cc1Nc1cnccc1C(=O)O [Compound 69, 3-((3-methyl-1-(piperidin-4-yl)-1H-pyrazol-4-yl)amino) isonicotinic acid]
100 to 1000 nM | 100 to 1000 nM | Cc1cn(-c2ccccc2C#N)nc1Nc1cnccc1C(=O)O [Compound 71, 3-((1-(2-cyanophenyl)-4-methyl-1H-pyrazol-3-yl)amino) isonicotinic acid]
100 to 1000 nM | 100 to 1000 nM | Cc1cc(Nc2cnccc2C(=O)O)n(-c2ccccc2)n1 [Compound 61, 3-((3-methyl-1-phenyl-1H-pyrazol-5-yl)amino) isonicotinic acid]
1 to 100 nM | 1 to 100 nM | CNC(=O)c1ccc(-n2ncc(Nc3cnccc3C(=O)O)c2C)cc1 [Compound 58, 3-((5-methyl-1-(4-(methylcarbamoyl)phenyl)-1H-pyrazol-4-yl)amino) isonicotinic acid]
100 to 1000 nM | 100 to 1000 nM | O=C(O)c1ccncc1Nc1nn(-c2ccccc2)cc1-c1ccccc1 [Compound 42, 3-((1,4-diphenyl-1H-pyrazol-3-yl)amino)isonicotinic acid]
1000 to 10000 nM | 100 to 1000 nM | COc1ccc(-n2nc(C)c(Nc3cnccc3C(=O)O)c2C)cc1 [Compound 75, 3-((1-(4-methoxyphenyl)-3,5-dimethyl-1H-pyrazol-4-yl)amino)isonicotinic acid]
10000 to 100000 nM | 1000 to 10000 nM | CN1CCN(CCn2cc(-c3ccccc3)c(Nc3cnccc3C(=O)O)n2)CC1 [Compound 34, 3-((1-(2-(4-Methylpiperazin-1-yl)ethyl)-4-phenyl-1H-pyrazol-3-yl)amino)isonicotinic acid]
100 to 1000 nM | 100 to 1000 nM | O=C(O)c1ccncc1Nc1nn(CCN2CCC(F)(F)CC2)cc1-c1ccccc1 [Compound 14, 3-((1-(2-(4,4-Difluoropiperidin-1-yl)ethyl)-4-phenyl-1H-pyrazol-3-yl)amino)isonicotinic acid]
1000 to 10000 nM | 100 to 1000 nM | Cn1nc(-c2ccccc2)cc1Nc1cnccc1C(=O)O [Compound 6]
100 to 1000 nM | 100 to 1000 nM | Cc1nn(C2CCCN(C)CC2)cc1Nc1cnccc1C(=O)O (stereo not shown) [Compound 111, 3-(3-methyl-1-(1-methylazepan-4-yl)-1H-pyrazol-4-ylamino) isonicotinic acid]
100 to 1000 nM | 1 to 100 nM | Cc1c(Nc2cnccc2C(=O)O)nn(CCN2CCC(F)(F)CC2)c1-c1ccccc1 [Compound 67, 3-((1-(2-(4,4-difluoropiperidin-1-yl)ethyl)-4-methyl-5-phenyl-1H-pyrazol-3-yl)amino)isonicotinic acid]
100 to 1000 nM | 100 to 1000 nM | O=C(O)c1ccncc1Nc1cn(-c2ccccc2)nc1-c1ccccc1 [Compound 41, 3-((1,3-Diphenyl-1H-pyrazol-4-yl)amino)isonicotinic acid]
1 to 100 nM | 1 to 100 nM | Cc1c(Nc2cnccc2C(=O)O)cnn1Cc1ccccc1 [Compound 33, 3-((1-benzyl-5-methyl-1H-pyrazol-4-yl)amino)isonicotinic acid]
1000 to 10000 nM | 100 to 1000 nM | Cc1nn(-c2ccc(O)cc2)c(C)c1Nc1cnccc1C(=O)O [Compound 76, 3-((1-(4-hydroxyphenyl)-3,5-dimethyl-1H-pyrazol-4-yl)amino)isonicotinic acid]
1000 to 10000 nM | 100 to 1000 nM | Cn1nc(-c2ccc(Cl)cc2)cc1Nc1cnccc1C(=O)O [Compound 24, 3-((3-(4-Chlorophenyl)-1-methyl-1H-pyrazol-5-yl)amino) isonicotinic acid]
100 to 1000 nM | 100 to 1000 nM | Cc1c(Nc2cnccc2C(=O)O)cnn1C1CCNCC1 [Compound 68, 3-((5-methyl-1-(piperidin-4-yl)-1H-pyrazol-4-yl)amino)isonicotinic acid]
100 to 1000 nM | 1000 to 10000 nM | O=C(O)c1ccncc1Nc1cc(-c2ccccc2)nn1-c1ccccc1 [Compound 21, 3-((1,3-Diphenyl-1H-pyrazol-5-yl)amino)isonicotinic acid]
100 to 1000 nM | 1 to 100 nM | CN(C)CCCn1cc(-c2ccccc2)c(Nc2cnccc2C(=O)O)n1 [Compound 51, 3-((1-(3-(dimethylamino)propyl)-4-phenyl-1H-pyrazol-3-yl)amino) isonicotinic acid]
100 to 1000 nM | 100 to 1000 nM | Cc1nn(C2CCCNCC2)cc1Nc1cnccc1C(=O)O (single isomer, unassigned) [Compound 116]
100 to 1000 nM | 100 to 1000 nM | Cn1cc(-c2cccc(F)c2)c(Nc2cnccc2C(=O)O)n1 [Compound 9, 3-((4-(3-Fluorophenyl)-1-methyl-1H-pyrazol-3-yl)amino) isonicotinic acid]
